The structures appear in SMILES notation.

The target in the assay is IDO (Homo sapiens (Human), UniProt P14902). The assay can be described thus: Kynurenine assay in IFN-γ-stimulated Hela cells. The format is cell-based. Particulars: 20 h, read-out: Hela Kyurenine (IC50). The procedure:
Reagents: Hela cells (ATCC, CCL-2)
IFNg (R&D, 28-IF-100)—resuspend at 10 ug/mL in PBS with 0.1% BSA 30% TCA
Ehrlich reagent (2% w/v p-dimethylaminobenzaldehyde in glacial acetic acid)
Cell Lines and Culture Conditions
Hela cancer cell lines were acquired from the American Type Culture Collection. Cells were maintained in phenol red free-RPMI1640 medium containing high glucose and L-glutamine (Invitrogen) supplemented with 10% fetal bovine serum (FBS; Invitrogen). Cell cultures were incubated at 37° C., 5% CO2, and 100% humidity.
Cell Treatment and Kynurenine Assay
Hela cells were seeded on 96-well plates (40,000 cells per well) and allowed to adhere for 5-6 hours. Cells were then treated with vehicle (DMSO) or with IDO inhibitor at a top dose of 30 μM (3-fold dilution all the way down to 1.5 nM). A final concentration of 100 ng/mL of human recombinant IFN-γ (R&D, 28-IF-100) was immediately added to the cells to stimulate IDO expression. Treated cells were then incubated for 20 hours at 37° C. At the end of the 20 h incubation, reactions were terminated by the addition of 30% TCA to each well. Plates were incubated for 30 minutes at 50° C. to hydrolyze N-formylkynurenine to kynurenine. Cells were centrifuged 10 minutes at 2400 rpm. 100 ul of supernatants were transferred to new 96 flat well plates and mixed with 100 ul Ehrlich reagent. The resulting solution was incubated 10 minutes at RT. Absorbance at 490 nm was read using Spectra Max 384 (Molecular Devices).

IDO, sequence (P14902 whole entry): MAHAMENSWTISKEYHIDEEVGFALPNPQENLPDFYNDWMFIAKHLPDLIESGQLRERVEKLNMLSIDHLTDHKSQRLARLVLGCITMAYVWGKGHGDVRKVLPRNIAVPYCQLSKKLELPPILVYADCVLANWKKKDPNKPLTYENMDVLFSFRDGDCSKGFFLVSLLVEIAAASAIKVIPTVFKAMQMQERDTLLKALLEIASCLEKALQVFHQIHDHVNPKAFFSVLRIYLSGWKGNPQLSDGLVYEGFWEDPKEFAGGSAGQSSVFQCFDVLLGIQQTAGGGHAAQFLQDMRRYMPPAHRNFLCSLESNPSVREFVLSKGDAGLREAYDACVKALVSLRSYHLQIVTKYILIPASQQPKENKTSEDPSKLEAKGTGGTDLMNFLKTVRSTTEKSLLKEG

On to `CCCCNC(=O)Nc1cc(-c2ccc(OC)c(C(=O)O)c2)ccc1Oc1ccccc1C(C)(C)C` [Example 90, 4′-(2-(tert-butyl)phenoxy)-3′-(3-(n-butyl)ureido)-4-methoxy-[1,1′-biphenyl]-3-carboxylic acid], for which the IC50 came to 260 nM. `COc1ccc(-c2ccc(Oc3ccccc3C(C)(C)C)c(NC(=O)NC3CCCCC3)c2)cc1C(=O)O` [Example 91, 4′-(2-(tert-butyl)phenoxy)-3′-(3-(cyclohexyl)ureido)-4-methoxy-[1,1′-biphenyl]-3-carboxylic acid]: the IC50 is 250 nM.

As for `COc1ccc(-c2ccc(Oc3ccccc3C(C)(C)C)c(NC(=O)Nc3cccc(C)c3C)c2)cc1C(=O)O` [Example 92, 4′-(2-(tert-butyl)phenoxy)-3′-(3-(2,3-dimethylphenyl)ureido)-4-methoxy-[1,1′-biphenyl]-3-carboxylic acid], the IC50 was 240 nM.

On to `COc1ccc(NC(=O)Nc2cc(-c3ccc(OC)c(C(=O)O)c3)ccc2Oc2ccccc2C(C)(C)C)c(C)c1` [Example 93, 4′-(2-(tert-butyl)phenoxy)-4-methoxy-3′-(3-(4-methoxy-2-methylphenyl)ureido)-[1,1′-biphenyl]-3-carboxylic acid], for which the 50% inhibitory concentration (IC50) turned out to be 620 nM.

Consider `COc1ccc(-c2ccc(Oc3ccccc3C(C)(C)C)c(NC(=O)Nc3cc(C)ccc3C)c2)cc1C(=O)O` [Example 95, 4′-(2-(tert-butyl)phenoxy)-3′-(3-(2,5-dimethylphenyl)ureido)-4-methoxy-[1,1′-biphenyl]-3-carboxylic acid], for which the IC50 is 260 nM. Take `COc1ccc(-c2ccc(Oc3ccccc3C(C)(C)C)c(NC(=O)Nc3ccc(C)c(C)c3)c2)cc1C(=O)O` [Example 96, 4′-(2-(tert-butyl)phenoxy)-3′-(3-(3,4-dimethylphenyl)ureido)-4-methoxy-[1,1′-biphenyl]-3-carboxylic acid]: the half-maximal inhibitory concentration (IC50) amounted to 180 nM. In the case of `COc1ccc(-c2ccc(Oc3ccccc3C(C)(C)C)c(NC(=O)Nc3cccc(Cl)c3C)c2)cc1C(=O)O` [Example 98, 4′-(2-(tert-butyl)phenoxy)-3′-(3-(3-chloro-2-methylphenyl)ureido)-4-methoxy-[1,1′-biphenyl]-3-carboxylic acid] it was 160 nM. As for `COc1ccc(-c2ccc(Oc3ccccc3C(C)(C)C)c(NC(=O)Nc3ccc(C(C)(C)C)cc3)c2)cc1C(=O)O` [Example 99, 4′-(2-(tert-butyl)phenoxy)-3′-(3-(4-(tert-butyl)phenyl)ureido)-4-methoxy-[1,1′-biphenyl]-3-carboxylic acid], the IC50 amounted to 220 nM.

In the case of `COc1ccc(-c2ccc(Oc3ccccc3C(C)(C)C)c(NC(=O)Nc3ccc(C)cc3F)c2)cc1C(=O)O` [Example 100, 4′-(2-(tert-butyl)phenoxy)-3′-(3-(2-fluoro-4-methylphenyl)ureido)-4-methoxy-[1,1′-biphenyl]-3-carboxylic acid], the IC50 was 470 nM.

Regarding `COc1ccc(-c2ccc(Oc3ccccc3C(C)(C)C)c(NC(=O)Nc3ccc(N(C)C)cc3)c2)cc1C(=O)O` [Example 101, 4′-(2-(tert-butyl)phenoxy)-3′-(3-(4-(dimethylamino)phenyl)ureido)-4-methoxy-[1,1′-biphenyl]-3-carboxylic acid], the 50% inhibitory concentration (IC50) was found to be 1010 nM. Take `COc1ccc(-c2ccc(Oc3ccccc3C(C)(C)C)c(NC(=O)Nc3ccc4c(c3)CCC4)c2)cc1C(=O)O` [Example 102, 4′-(2-(tert-butyl)phenoxy)-3′-(3-(2,3-dihydro-1H-inden-5-yl)ureido)-4-methoxy-[1,1′-biphenyl]-3-carboxylic acid]: the IC50 stood at 220 nM.

For `COc1ccc(-c2ccc(Oc3ccccc3C(C)(C)C)c(NC(=O)Nc3cc(Cl)ccc3Cl)c2)cc1C(=O)O` [Example 104, 4′-(2-(tert-butyl)phenoxy)-3′-(3-(2,5-dichlorophenyl)ureido)-4-methoxy-[1,1′-biphenyl]-3-carboxylic acid], the IC50 was 100 nM. Consider `COc1ccc(-c2ccc(Oc3ccccc3C(C)(C)C)c(NC(=O)Nc3ccc(Cl)c(Cl)c3)c2)cc1C(=O)O` [Example 105, 4′-(2-(tert-butyl)phenoxy)-3′-(3-(3,4-dichlorophenyl)ureido)-4-methoxy-[1,1′-biphenyl]-3-carboxylic acid], for which the IC50 is 370 nM. The figure for `COc1ccc(-c2ccc(Oc3ccccc3C(C)(C)C)c(NC(=O)Nc3cccc(C#N)c3)c2)cc1C(=O)O` [Example 108, 4′-(2-(tert-butyl)phenoxy)-3′-(3-(3-cyanophenyl)ureido)-4-methoxy-[1,1′-biphenyl]-3-carboxylic acid] is 720 nM; for `COc1ccc(Cl)cc1NC(=O)Nc1cc(-c2ccc(OC)c(C(=O)O)c2)ccc1Oc1ccccc1C(C)(C)C` [Example 109, 4′-(2-(tert-butyl)phenoxy)-3′-(3-(5-chloro-2-methoxyphenyl)ureido)-4-methoxy-[1,1′-biphenyl]-3-carboxylic acid] it is 600 nM. With `C#CCNC(=O)Nc1cc(-c2ccc(OC)c(C(=O)O)c2)ccc1Oc1ccccc1C(C)(C)C` [Example 119, 4′-(2-tert-butylphenoxy)-4-methoxy-3′-(3-prop-2-ynylureido)biphenyl-3-carboxylic acid], the IC50 was 780 nM. Regarding `CC(C)(C)c1ccccc1Oc1ccc(-c2ccccc2C(=O)O)cc1NC(=O)Nc1ccccc1Cl` [Example 155, 4′-(2-tert-butylphenoxy)-3′-(3-(2-chlorophenyl)ureido)biphenyl-2-carboxylic acid], the IC50 was 450 nM. In the case of `Cc1cccc(NC(=O)Nc2cc(-c3ccc(Cl)cc3C(=O)O)ccc2Oc2ccccc2C(C)(C)C)c1` [Example 160, 4′-(2-tert-butylphenoxy)-4-chloro-3′-(3-m-tolylureido)biphenyl-2-carboxylic acid] it was 1320 nM; in that of `CC(C)(C)c1ccccc1Oc1ccc(-c2ccccc2-c2nnn[nH]2)cc1NC(=O)Nc1ccccc1Cl` [Example 179, 1-(4-(2-tert-butylphenoxy)-2′-(1H-tetrazol-5-yl)biphenyl-3-yl)-3-(2-chlorophenyl)urea], 210 nM.

Consider `Cc1cccc(NC(=O)Nc2cc(-c3ccccc3-c3nnn[nH]3)ccc2Oc2ccccc2C(C)(C)C)c1` [Example 182, 1-(4-(2-tert-butylphenoxy)-2′-(1H-tetrazol-5-yl)biphenyl-3-yl)-3-m-tolylurea], for which the IC50 was 1050 nM. Consider `CC(C)(C)c1ccccc1Oc1ccc(-c2ccccc2-c2nnn[nH]2)cc1NC(=O)Nc1ccccc1C(F)(F)F` [Example 183, 1-(4-(2-tert-butylphenoxy)-2′-(1H-tetrazol-5-yl)biphenyl-3-yl)-3-(2-(trifluoromethyl)phenyl)urea], for which the half-maximal inhibitory concentration (IC50) came out at 690 nM. Regarding `O=C(Nc1ccccc1)Nc1cc(-c2ccccc2-c2nnn[nH]2)ccc1Oc1cccc2c1CCCC2` [Example 184, 1-phenyl-3-(4-(5,6,7,8-tetrahydronaphthalen-1-yloxy)-2′-(1H-tetrazol-5-yl)biphenyl-3-yl)urea], the IC50 is 1100 nM. In the case of `O=C(Nc1ccccc1Cl)Nc1cc(-c2ccccc2-c2nnn[nH]2)ccc1Oc1cccc2c1CCCC2` [Example 186, 1-(2-chlorophenyl)-3-(4-(5,6,7,8-tetrahydronaphthalen-1-yloxy)-2′-(1H-tetrazol-5-yl)biphenyl-3-yl)urea] it was 1130 nM; in that of `Cc1ccccc1NC(=O)Nc1cc(-c2ccc(C(=O)O)cc2)ccc1Oc1ccccc1C(C)(C)C` [Example 200, 4′-(2-tert-butylphenoxy)-3′-- (3-o-tolylureido) biphenyl-4-carboxylic acid], 1520 nM. Consider `CC(C)(C)c1ccccc1Oc1ccc(-c2ccc(C(=O)O)cc2)cc1NC(=O)Nc1ccccc1Cl` [Example 202, 4′-(2-tert-butylphenoxy)-3′-(3-(2-chlorophenyl)ureido)biphenyl-4-carboxylic acid], for which the IC50 was 1690 nM. Consider `O=C(Nc1ccccc1Cl)Nc1cc(-c2ccc(C(=O)O)c(Cl)c2)ccc1Oc1ccccc1C(F)(F)F` [Example 203, 3-chloro-3′-(3-(2-chlorophenyl)ureido)-4′-(2-(trifluoromethyl)phenoxy)biphenyl-4-carboxylic acid], for which the IC50 is 500 nM. As for `Cc1cccc(NC(=O)Nc2cc(-c3ccc(C(=O)O)c(Cl)c3)ccc2Oc2ccccc2C(F)(F)F)c1` [Example 204, 3-chloro-3′-(3-m-tolylureido)-4′-(2-(trifluoromethyl)phenoxy)biphenyl-4-carboxylic acid], the IC50 was 1250 nM. Regarding `Cc1ccc(NC(=O)Nc2cc(-c3ccc(C(=O)O)c(Cl)c3)ccc2Oc2ccccc2C(F)(F)F)cc1` [Example 205, 3-chloro-3′-(3-p-tolylureido)-4′-(2-(trifluoromethyl)phenoxy)biphenyl-4-carboxylic acid], the IC50 worked out at 850 nM. As for `O=C(Nc1ccc(C(F)(F)F)cc1)Nc1cc(-c2ccc(C(=O)O)c(Cl)c2)ccc1Oc1ccccc1C(F)(F)F` [Example 207, 3-chloro-4′-(2-(trifluoromethyl)phenoxy)-3′-(3-(4-(trifluoromethyl)phenyl)ureido) biphenyl-4-carboxylic acid], the IC50 worked out at 1230 nM.

Consider `CC(C)(C)c1ccccc1Oc1ccc(-c2ccc(C(=O)O)cc2)cc1NC(=O)Nc1ccc(C(F)(F)F)cc1` [Example 209, 4′-(2-tert-butylphenoxy)-3′-(3-(4-(trifluoromethyl)phenyl)ureido) biphenyl-4-carboxylic acid], for which the IC50 stood at 1740 nM.

As usually defined, the IC50 is the midpoint of a concentration-inhibition curve.

(Values after US9765018B2, “IDO inhibitors” (BRISTOL-MYERS SQUIBB COMPANY, priority 2013, dated 2017).)
